Measurements from US20250042848A1, “DEUTERATED FUNCTIONALIZED DERIVATIVES OF alpha-ALANINE, IN [sequence] FOR THE TREATMENT OF NEUROLOGICAL DISEASES” (UNIWERSYTET JAGIELLONSKI, priority 2021, published 2025).
Like-named read-outs stand apart in the source and are kept apart here.

Key:
[1] = test system: human liver microsomes (HLMs); settings: cited from earlier work
[2] = target: CYP3A4 (Homo sapiens, UniProt P08684); settings: cited from earlier work
[3] = test system: motor coordination of mice; experiment: Rotarod test (motor coordination, acute neurotoxicity); type: in vivo; settings: in mg/kg
Protocol: (§1) Initial screening was performed on groups of 4 mice. The mean effective dose (ED50) in a given test and the neurotoxic dose in the rotarod test (TD50) were estimated on the basis of the results obtained on 3-4 groups of animals consisting of 6 animals.
The effect of the tested compounds on motor coordination was assessed in the rotarod test (May Commat, RR 0711 RotaRod, Turkey). The day before the actual experiment, the mice were trained on a rod rotating at 10 revolutions per minute (rpm) for 3 minutes. The experiment was performed 30 minutes and 2 hours after administration of the compounds. The motor coordination of the animals was tested at the speed of the rotating rod: 10 rpm for 60 seconds. The measure of neurotoxicity was the inability to stay on the rod for a given time (Łuszczki, J.J. et al. Eur. Neuropsychopharmacol. 2005, 6, 609-616).
(§2) The ED50 (effective dose) and TD50 (toxic dose) values along with the corresponding 95% confidence limits were calculated based on the Litchfield and Wilcoxon method (Litchfield, J.T.; Wilcoxon, F. J. Pharmacol. Exp. Ther. 1949, 96, 99-113). To perform a statistical evaluation of the results in the scPTZ test, one-way ANOVA variance analysis followed by Dunnett's post hoc test were used. The values were considered statistically significant if p<0.05.

[4] = test system: motor coordination of mice; settings: in vivo; cited from earlier work
[5] = test system: human liver microsomes (HLMs); experiment: In vitro metabolic stability, human liver microsomes; type: in vitro ADME; settings: 120-minute incubation with HLMs
Protocol: Metabolic stability assessment was performed using mouse (MLMs) and human (HLMs) liver microsomes purchased from Sigma-Aldrich (St. Louis, MO, USA). The detailed methodology is described in the literature (Kamiński et al. J. Med. Chem. 2015, 58, 5274-5286). The reaction mixture was prepared by mixing […] of the tested compound with mouse or human microsomes (1 mg/mL) in 10 mM TRIS-HCl buffer. The reaction mixture was pre-incubated for 5 min at 37° C. After the initial incubation, 50 μL of the NADPH Regeneration System (Promega, Madison, WI, USA) was added to initiate the reaction. The reaction mixture was then incubated for 120 min at 37° C. 200 μL of cold extra pure methanol was added to complete the reaction. The mixture was then centrifuged at 14,000 g for 15 min and the supernatants were analyzed using a Waters ACQUITY™ TQD LC/MS system with a TQ detector (Waters, Milford, USA). Each experiment was performed in triplicate.

[6] = test system: psychomotor seizures induced by a 44 mA, 6 Hz stimulus in mice; experiment: Psychomotor seizure test 6 Hz (44 mA); type: in vivo; settings: in mg/kg
Protocol: as §1
(§3) In the psychomotor seizure test (6 Hz test), seizures were induced by a 32 mA and/or 44 mA electrical stimulus of a frequency of 6 pulses per second. An electrical pulse was generated using an electric shock generator (ECT Unit 57800; Ugo Basile, Gemonio, Italy) and delivered to the animal using corneal electrodes. Before starting the test, the eye surface was gently moistened with a solution of local anesthetic (1% lidocaine solution). The study was conducted 30 minutes/2 hours after intraperitoneal administration of the compounds at various doses. An electrical stimulus was delivered continuously for a period of 3 seconds, followed by observation of the animal for a period of 10 seconds. During the experiment, the number of animals with an episode of psychomotor convulsions was counted: motor inhibition, staggering, maintaining a sitting posture, forelimb clonus, twitching of the vibrissae and Straub-tail were observed (Leclercq, K.; Kaminski, R.M. Epilepsia 2015, 56, 310-318).
as §2

[7] = test system: psychomotor seizures induced by a 32 mA, 6 Hz stimulus in mice; experiment: Psychomotor seizure test 6 Hz (32 mA); type: in vivo
Protocol: as §1, §3, §2

[8] = test system: maximal electroshock seizures in mice; experiment: Maximal electroshock seizure test (MES); type: in vivo
Protocol: as §1
In the maximal electroshock seizure test (MES), the seizures were induced by 500 V, 25 mA electrical stimulus of 0.2 s in duration. The electrical pulse was generated using an electric shock generator (Rodent shocker, Type 221, Hugo Sachs Elektronik, Germany) and delivered to the animal using electrodes placed on the auricles. The study was conducted 30 minutes/2 hours after intraperitoneal administration of the compounds at various doses. During the experiment, the number of animals that experienced a seizure episode in the form of hindlimb tonic extension was counted (Łuszczki, J.J. et al. Fundam. Clin. Pharmacol. 2008, 22, 69-74).
as §2

[9] = test system: CYP2D9; settings: cited from earlier work
[10] = mouse, in vivo, po, 40 mg/kg
Protocol: The animals were housed at a temperature of 22-24° C., humidity of 50% (+/−10%), in a room providing 15 air changes per hour, with 12:12 hours light-dark cycle. In addition, they had constant access to food and water. […] Blood was allowed to clot at room temperature for 20 min, then centrifuged for 5 min, 10,000×g (Eppendorf miniSpin centrifuge, Germany) to obtain serum. The obtained biological material was stored at −70° C. until analysis.
Concentrations of the tested compounds in murine serum and brain homogenates were determined by high-performance liquid chromatography-tandem mass spectrometry (HPLC-MS/MS). Analyzes were performed on a Sciex QTRAP 4500 triple quad mass spectrometer coupled to an Exion LC AC HPLC (Danaher Corporation, USA). The chromatographic separation was carried out on a Hypersil Gold™ C18 column (3×50 mm, 5 μm, Thermo Scientific, USA), using a mixture of acetonitrile and water with 0.1% formic acid as the mobile phase. Analyzes were performed at 40° C. and the gradient shown in Table 7 was used to obtain optimal retention time. Valsartan was used as an internal standard. Positive ionization mode (ESI+) was used for maximum sensitivity. […]
Non-compartmental analysis was used to estimate the pharmacokinetic parameters. Maximum concentration (Cmax) and time necessary to reach maximum blood concentration-tmax were evaluated directly from the concentration-time plot.

[11] = test system: spontaneous locomotor activity of mice; settings: mouse, in vivo; cited from earlier work
[12] = test system: pentylenetetrazole-induced clonic seizures in mice; settings: 0.5 h, i.p.; own data disclosed in Abram et al. Bioorg. Chem. 2021; in mg/kg; cited from earlier work
[13] = test system: psychomotor seizures induced by a 32 mA, 6 Hz stimulus in mice; settings: 0.5 h, i.p.; own data disclosed in Abram et al. Bioorg. Chem. 2021; in mg/kg; cited from earlier work
[14] = 0.5 h after i.p. administration
[15] = 2.0 h after i.p. administration

Sequence of CYP3A4 (P08684 whole entry): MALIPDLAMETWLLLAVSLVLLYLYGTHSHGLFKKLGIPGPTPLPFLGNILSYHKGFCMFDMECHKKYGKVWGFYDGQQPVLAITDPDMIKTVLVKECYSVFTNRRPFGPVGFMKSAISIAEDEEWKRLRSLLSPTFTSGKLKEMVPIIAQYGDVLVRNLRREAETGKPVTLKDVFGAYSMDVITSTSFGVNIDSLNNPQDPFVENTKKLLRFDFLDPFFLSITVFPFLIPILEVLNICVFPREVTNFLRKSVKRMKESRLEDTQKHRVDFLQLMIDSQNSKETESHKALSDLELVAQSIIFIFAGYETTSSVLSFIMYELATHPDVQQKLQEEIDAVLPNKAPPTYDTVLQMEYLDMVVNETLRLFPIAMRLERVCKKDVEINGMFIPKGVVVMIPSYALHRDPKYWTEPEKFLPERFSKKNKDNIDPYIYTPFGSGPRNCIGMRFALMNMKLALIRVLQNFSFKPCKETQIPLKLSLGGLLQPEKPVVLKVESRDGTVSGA

Compound | metabolic stability on human microsomes [1] | interaction with CYP3A4 isoform of cytochrome P-450 [2] | TD50 Rotarod [3, 14] | TD50 Rotarod [3, 15] | effect on mouse motor coordination in the rotarod test [4] | metabolic stability [5] | ED50 6 Hz (44 mA) [6, 14] | ED50 6 Hz (44 mA) [6, 15] | ED50 6 Hz (32 mA) [7, 14] | ED50 6 Hz (32 mA) [7, 15] | ED50 MES [8, 14] | ED50 MES [8, 15] | interaction with CYP2D9 isoform of cytochrome P-450 [9] | tmax [10] | sedative effect in spontaneous locomotor activity test on mice [11] | ED50 scPTZ [12] | ED50 6 Hz (32 mA) [13]
CC(C(=O)NCc1ccccc1F)N1C(=O)CCC1=O (centres unmarked) [Compound 2, reference compound] | very high metabolic stability | no interaction | >100 | >300 | minimal effect | high metabolic stability | 78.3 | 86.8 | 16.7 mg/kg | 38.1 mg/kg | 23.6 mg/kg | 73.3 mg/kg | no interaction | 30 min | no sedative effect | – | –
CCCC(CCC)C(=O)O [VPA, valproic acid] | – | – | – | – | – | – | – | – | – | – | – | – | – | – | – | 239.4 | 130.6
